≈ marks a conversion by molar mass, not a printed value. Read-outs that look alike come from different tables or passages of the source.

The subject of one assay is Rat L6 cells. Nature of the assay: Growth inhibition test of rat L6 cells. The format is cell-based. The procedure: Rat derived-L6 cells (rat skeletal myoblast cell) were used. A medium, RPMI1640 medium was supplemented so that L-glutamin (200 mM) is 1%, and fetal bovine serum 10%, and the medium was cultured under CO2 concentration 5%, at 37° C.
The compounds of the present invention and the control drugs to be used in the test were dissolved in DMSO, to make a test solution of a predetermined concentration.
Pre-culture was conducted and medium containing cells which have entered the logarithmic growth phase was taken to wells of a 96-well culture plate. Then, a test solution containing drug of a predetermined concentration or a drug-free DMSO was added. Test solutions were taken by duplicates.
Culture plate was cultured for 72 hours in an incubator, to test the growth inhibition activity. Test was conducted as follows. 10 μL of Alamar Blue aqueous solution was added to each well, and the resultant was further cultured for 2 hours. Next, the culture plate was placed on a fluorescent micro-plate reader (Spectramax Gemeni XS; US Molecular Device), radiated at an excited wavelength of 536 nm. Fluorescent intensity was measured at 588 nm, and residual rate of L6 cells of the test solution added group, and that of the control was calculated.
Growth inhibition rate (%)={(C−A)/(B−A)}×100 • A: Primary cell count • B: cell count of control, 3 days after • C: cell count of wells added with a sample, 3 days after 4. Determination of Drug Efficacy Against Chloroquine Resistant-Plasmodium

In assay [1] the test system is Plasmodium berghei NK65 strain. Briefly: Cure test by oral administration to mice infected with malaria. Particulars: for inhibition in vivo at 100 mg/kg: Plasmodium berghei, infected ICR mice, suppression vs control; for inhibition in vivo at 100 mg/kg / Days of survival: oral, 1 dose, 100 mg/kg; for Days of survival: mean days to death minus that of control mice; for Effectiveness in the in vivo malaria test, in words: oral administration to mice infected with rodent malaria. The format is in vivo. The procedure: In this experiment, rodent malaria parasites (the Plasmodium berghei NK65 strain) were used.
The infected blood to be used was subcultured in ICR female SPF mice infected by intraperitoneal or tail vein administration at 4 to 6 weeks old (20 to 26 g). […] Thereafter, based on the number of red cells (cells/ml) and the rate of infection by the protozoans, the blood was diluted with phys'iological saline such that a density of […] malaria parasites/1 ml dose was attained. This was used for infection of uninfected mice (ICR female mice, 5 weeks old) in an amount of 0.2 ml/20 g body weight, through the tail vein (Day-0). The compound used in the test was dissolved in 10% DMSO solution (a mixture of 1 ml of DMSO and 9 ml of 5% glucose solution).
Each group contained 4 mice, and the compound was orally administered to the mice 24 hours after their infection with malaria (Day-1), in an amount calculated such that 100 mg of the compound was administered per 1 kg of the body weight of a mouse. On the other hand, in terms of cases in which the amount was calculated such that 30 mg of the compound was administered per 1 kg of the body weight of a mouse, the oral administration was carried out a total of three times, that is, 24 hours (Day-1), 48 hours (Day-2) and 72 hours (Day-3) after the infection of malaria.
Blood was collected from the tails of each mouse 96 hours (Day-4) and 144 hours (Day-6) after the infection with malaria, and thin blood films were prepared. Under the microscope, the numbers of infection of malaria parasites in the group to which the compound was administered and the control group (to which the compound was not administered) were measured, and the rates of infection with malaria parasites (Parasitemia) were calculated.
From the rate of infection with malaria parasites calculated as above, the cure rate (Suppression) in the case of administration of the drug was calculated according to the following equation. Cure rate: Suppression (%)=(B−A)/B×100
A: Rate of infection with the protozoans in a mouse to which the present test compound was administered
B: Rate of infection with the parasites in a control mouse (to which the compound was not administered) Days of survival: MSD (day)=C−D
C: the average number of days from the date of infection with malaria to the date of death in the mice to which the present test compound was administered
D: The average number of days from the date of infection with malaria to the date of death in the 4 individuals of control mice (to which the compound was not administered)
Further, by observation of changes in the body weight, hair glossiness and the like of each mouse, side effects such as acute toxicity due to administration of the compound were evaluated.

Assay [2] has as its system Leishmania donovani (MHOM/ET/67/L82 strain). Briefly: Leishmania protozoa growth inhibition screening test. The format is cell-based. The procedure:
In the present experiment, Leishmania donovani (MHOM/ET/67/L82 strain) was used. Protozoa was subcultured in Syrian Golden hamster, from which an amastigote was obtained. In the experiment, SM medium supplemented with 10% heat-treated bovine fetal serum was used, which was adjusted to pH 5.4, and cultured in an atmosphere of 5% CO2 concentration, at 37° C.
The compounds of the present invention to be used in the present test and the positive control drug (miltefosine) were dissolved in DMSO to make a test solution of a predetermined concentration.
After adding a medium containing a predetermined number of protozoa to wells of a 96-well culture'plate and pre-treating, concentration of the amastigote was measured with CASY cell analysis system (Scharfe, Germany). Then, test solution containing a drug of a predetermined concentration or a drug-free DMSO was added. Test solutions were taken by duplicates.
After culturing the culture plate for 72 hours in an incubator, growth inhibition activity was tested. Test was conducted as follows. 10 μL of Alamar Blue aqueous solution was added to each well, and the resultant was further cultured for 2 hours. Next, the culture plate was placed on a fluorescent micro-plate reader (Spectramax Gemeni XS; US Molecular Device), radiated at an excited wavelength of 536 nm. Fluorescent intensity was measured at 588 nm, and infection rate of leishmania protozoa of the test solution added group and control was calculated.
Growth inhibition rate (%)={1−(b−a)/(c−a)}×100 • a: early infection rate • b: infection rate when test solution was added • c: infection rate of the control

The mark [3] stands for this setting: 96 h, read-out: Cure rate (%) Day-4.
Setting [4] is: 144 h, read-out: Cure rate (%) Day-6.
The mark [5] stands for this setting: Table 2, unit inferred, 72 hours, read-out: Cytoxicity L6.
Setting [6] is: Table 6, unit inferred, read-out: Leishmania donovani.

`CCN(CC)c1ccc2nc3c4ccccc4c(=Nc4ccc5ccccc5n4)cc-3oc2c1` [Compound 1H, N,N-Diethyl-5-(quinolin-2-ylimino)-5H-benzo[a]phenoxazin-9-amine]: the EC50 in the assay on Rat L6 cells (Table 1, 72 hours, Alamar Blue, read-out: 50% Growth inhibition concentration Cytoxicity L6) came out at 30.1 µg/mL (≈ 67.8 µM); in assay [2] (Leishmania donovani, Table 5, amastigotes, 72 hours, Alamar Blue, read-out: 50% Growth inhibition concentration Leishmania donovani), 1.25 µg/mL (≈ 2.81 µM). Further, the inhibition in vivo at 100 mg/kg in assay [1] (setting [3]) was determined as 81%; in assay [1] (setting [4]), 71%. For the same compound, the “Days of survival” value in assay [1] is 4.3 days.

In the case of `CCN(CCNS(C)(=O)=O)c1cc(C)c2nc3c4ccccc4c(=Nc4ccncc4)cc-3oc2c1` [Compound 1R, N-Ethyl-N-(2-methansulfonamidylethyl)-11-methyl-5-(pyridine-4-ylimino)-5H-benzo[a]phenoxazin-9-amine], the EC50 is 7.97 µg/mL (≈ 15.9 µM) in the assay with Rat L6 cells (setting [5]) and 3.92 µg/mL (≈ 7.81 µM) in assay [2] (setting [6]). Moreover, the results for the inhibition in vivo at 100 mg/kg in assay [1] (setting [3]) and in assay [1] (setting [4]) were 100% and 95.7%, respectively. Besides, the “Effectiveness in the in vivo malaria test, in words” value in assay [1] is “excellent cure effects”. Further, the “Days of survival” value in assay [1] came to 15.7 days.

For `CCN(CCNS(C)(=O)=O)c1cc(C)c2nc3c4ccccc4c(=Nc4ccccn4)cc-3oc2c1` [Compound 1S, N-Ethyl-N-(2-methansulfonamidylethyl)-11-methyl-5-(pyridine-2-ylimino)-5H-benzo[a]phenoxazin-9-amine], the EC50 was found to be 0.307 µg/mL (≈ 0.612 µM) in the assay on Rat L6 cells (setting [5]) and 2.09 µg/mL (≈ 4.17 µM) in assay [2] (setting [6]). For the same compound, the inhibition in vivo at 100 mg/kg in assay [1] (setting [3]) and in assay [1] (setting [4]) was 100% throughout. Moreover, the “Effectiveness in the in vivo malaria test, in words” value in assay [1] is on record as “excellent cure effects”. Further, in assay [1], the “Days of survival” value worked out at 11.3 days.

The values above are taken from US8288374B2, “Medicinal composition containing benzo[a]phenoxazine compound as the active ingredient for prevention or treatment of protozoal disease” (Hoshi University, priority 2008, dated 2012).
